Assay results from US4107424A, “1-N-[(S)-α-hydroxy-ω-aminoacyl] derivatives of 3',4'-dideoxykanamycin B and 3'-deoxykanamycin B antibiotics” (Zaidan Hojin Biseibutsu Kagaku Kenkyu Kai, priority 1972, dated 1978).
≈ marks a conversion by molar mass, not a printed value. Like-named read-outs stand apart in the source and are kept apart here.

Assays:
[1] = test system: kanamycin-resistant strains; settings: strains producing 3'-hydroxyl phosphorylating enzyme; cited from earlier work
[2] = test system: Escherichia coli K-12 JR 66/W 677; test: Minimal inhibitory concentration, agar dilution streak method; format: cell-based; settings: for MIC: Escherichia coli, 18 h
Procedure: (§1) *Agar Agar dilution streak method (nutrient agar, 37° C, 18 hours)
(§2) *Agar dilution streak method (nutrient agar, 37° C, 18 hours).

[3] = test system: Escherichia coli K-12 ML 1629; test: as above; format: cell-based; settings: K12ML1629, nutrient agar, 37° C, 18 hours
Procedure: as §1, §2

[4] = test system: Pseudomonas aeruginosa GN 315; test: as above; format: cell-based; settings: GN315, nutrient agar, 37° C, 18 hours
Procedure: as §1, §2

[5] = test system: Escherichia coli K-12 LA 290 R 55; test: as above; format: cell-based; settings: 18 h
Procedure: as §1, §2

[6] = test system: gram-positive and gram-negative bacteria; test: Antibacterial activity (in words); format: cell-based; settings: for antibacterial activity compared with parent or reference substance: sensitive (and resistant) bacteria
Procedure: (§3) [α]D^22 + 38°, (c 0.85, water).

[7] = test system: Bacillus subtilis NRRL B-558; test: Minimal inhibitory concentration, agar dilution streak method; format: cell-based; settings: NRRLB558, nutrient agar, 37° C, 18 hours
Procedure: as §3, §1, §2

[8] = test system: Escherichia coli K-12 C 600 R 135; test: as above; format: cell-based; settings: 18 h, read-out: Minimal inhibitory concentration
Procedure: as §3, §1, §2

Sarcina lutea PCI 1001 = test: as above; format: cell-based; settings: Micrococcus luteus, PCI1001; nutrient agar, 37° C, 18 hours; read-out: Minimal inhibitory concentration
Procedure: as §3, §1, §2

[9] = test system: Pseudomonas aeruginosa 99; test: as above; format: cell-based; settings: nutrient agar, 37° C, 18 hours, read-out: Minimal inhibitory concentration
Procedure: as §3, §1, §2

Salmonella typhosa T-63 = test: as above; format: cell-based; settings: Salmonella enterica, nutrient agar, 37° C, 18 hours
Procedure: as §3, §1, §2

Proteus rettgeri GN 466 = test: as above; format: cell-based; settings: Providencia rettgeri, GN466; nutrient agar, 37° C, 18 hours
Procedure: as §3, §1, §2

[10] = test system: Escherichia coli K-12 R-5; test: as above; format: cell-based; settings: K12R5, nutrient agar, 37° C, 18 hours
Procedure: as §3, §1, §2

[11] = test system: Klebsiella pneumoniae PCI 602; test: as above; format: cell-based; settings: PCI602, nutrient agar, 37° C, 18 hours
Procedure: as §3, §1, §2

Proteus rettgeri GN 311 = test: as above; format: cell-based; settings: Providencia rettgeri, GN311; nutrient agar, 37° C, 18 hours
Procedure: as §3, §1, §2

[12] = test system: Escherichia coli J 5 R 11-2; test: as above; format: cell-based; settings: J5R112, 18 h, read-out: Minimal inhibitory concentration
Procedure: as §3, §1, §2

Escherichia coli NIHJ = test: as above; format: cell-based; settings: nutrient agar, 37° C, 18 hours
Procedure: as §3, §1, §2

mice = test: Acute intravenous toxicity (LD50) in mice; settings: in words
[13] = test system: Pseudomonas aeruginosa TI-13; test: Minimal inhibitory concentration, agar dilution streak method; format: cell-based; settings: TI13, nutrient agar, 37° C, 18 hours, read-out: Minimal inhibitory concentration
Procedure: as §1, §2

[14] = test system: Escherichia coli K-12 W 677; test: as above; format: cell-based; settings: K12W677, nutrient agar, 37° C, 18 hours, read-out: Minimal inhibitory concentration
Procedure: as §1, §2

[15] = test system: Pseudomonas aeruginosa A 3; test: as above; format: cell-based; settings: A3, nutrient agar, 37° C, 18 hours, read-out: Minimal inhibitory concentration
Procedure: as §1, §2

[16] = test system: Escherichia coli K-12 ML 1630; test: as above; format: cell-based; settings: K12ML1630, nutrient agar, 37° C, 18 hours, read-out: Minimal inhibitory concentration
Procedure: as §1, §2

[17] = test system: Escherichia coli K-12 LA 290 R 64; test: as above; format: cell-based; settings: nutrient agar, 37° C, 18 hours, read-out: Minimal inhibitory concentration
Procedure: as §1, §2

[18] = test system: Pseudomonas aeruginosa No.12; test: as above; format: cell-based; settings: nutrient agar, 37° C, 18 hours, read-out: Minimal inhibitory concentration
Procedure: as §1, §2

[19] = test system: Escherichia coli K-12 LA 290 R 56; test: as above; format: cell-based; settings: 18 h, read-out: Minimal inhibitory concentration
Procedure: as §1, §2

[20] = test system: Klebsiella pneumoniae type 22 #3038; test: as above; format: cell-based; settings: for MIC: Klebsiella pneumoniae, nutrient agar, 37° C, 18 hours
Procedure: as §1, §2

in vivo = settings: mouse, iv
[21] = test system: Mycobacterium smegmatis ATCC 607; test: Minimal inhibitory concentration, agar dilution streak method; format: cell-based; settings: Mycolicibacterium smegmatis, ATCC607; nutrient agar, 37° C, 48 hours; read-out: Minimal inhibitory concentration
[22] = test system: Staphylococcus aureus FDA 209P; test: as above; format: cell-based; settings: FDA209P, nutrient agar, 37° C, 18 hours, read-out: Minimal inhibitory concentration
Procedure: as §1, §2

[23] = test system: Escherichia coli K-12 ML 1410; test: as above; format: cell-based; settings: K12ML1410, nutrient agar, 37° C, 18 hours, read-out: Minimal inhibitory concentration
Procedure: as §1, §2

[24] = test system: Escherichia coli K-12 ML 1410 R 81; test: as above; format: cell-based; settings: 18 h, read-out: Minimal inhibitory concentration
Procedure: as §1, §2

Escherichia coli K-12 = test: as above; format: cell-based; settings: K12, nutrient agar, 37° C, 18 hours, read-out: Minimal inhibitory concentration
Procedure: as §1, §2

[25] = read-out: minimum inhibitory concentrations
[26] = drug-resistant strain, read-out: minimum inhibitory concentrations
[27] = read-out: Minimal inhibitory concentration
[28] = strain resistant to butirosin B

| SMILES | MIC [7] | MIC [8] | MIC (Sarcina lutea PCI 1001) | MIC [9] | MIC (Salmonella typhosa T-63) | MIC (Proteus rettgeri GN 466) | MIC [10] | MIC [11] | MIC (Proteus rettgeri GN 311) | MIC [12] | MIC (Escherichia coli NIHJ) | MIC [13] | MIC [14] | MIC [15] | MIC [16] | MIC [17] | MIC [3, 27] | MIC [18] | MIC [19] | MIC [4, 27] | also measured |
| --- | --- | --- | --- | --- | --- | --- | --- | --- | --- | --- | --- | --- | --- | --- | --- | --- | --- | --- | --- | --- | --- |
| NCC1OC(OC2C(N)CC(N)C(OC3OC(CO)C(O)C(N)C3O)C2O)C(O)CC1O (stereo not drawn) [3'-deoxykanamycin] |  |  |  |  |  |  |  |  |  |  |  |  |  |  |  |  |  |  |  |  | activity against kanamycin-resistant strains [1]: actually effective |
| NC[C@H]1O[C@H](O[C@H]2[C@H](O)[C@@H](O)[C@H](N)C[C@@H]2N)[C@H](N)C[C@@H]1O [3'-deoxyneamine] |  |  |  |  |  |  |  |  |  |  |  |  |  |  |  |  |  |  |  |  | activity against kanamycin-resistant strains [1]: actually effective; MIC [2, 25]: > 100 µg/mL; MIC [3, 26]: 6.25 µg/mL (≈ 20.4 µM); MIC [4, 26]: > 100 µg/mL; MIC [5, 25]: 100 µg/mL (≈ 326 µM) |
| NCC[C@H](O)C(=O)N[C@@H]1C[C@H](N)[C@@H](O[C@H]2O[C@H](CN)CC[C@H]2N)[C@H](O)[C@H]1O [AHB-dideoxyneamine, 1-N-[(S)-4-amino-2-hydroxybutyryl]-3',4'-dideoxyneamine] | < 0.39 µg/mL | 12.5 µg/mL (≈ 31.9 µM) | 25 µg/mL (≈ 63.9 µM) | 25 µg/mL (≈ 63.9 µM) | 1.56 µg/mL (≈ 3.98 µM) | 12.5 µg/mL (≈ 31.9 µM) | 50 µg/mL (≈ 128 µM) | 6.25 µg/mL (≈ 16 µM) | 25 µg/mL (≈ 63.9 µM) | 6.25 µg/mL (≈ 16 µM) | 3.12 µg/mL (≈ 7.97 µM) | 6.25 µg/mL (≈ 16 µM) | 3.12 µg/mL (≈ 7.97 µM) | 6.25 µg/mL (≈ 16 µM) | 3.12 µg/mL (≈ 7.97 µM) | 3.12 µg/mL (≈ 7.97 µM) | 3.12 µg/mL (≈ 7.97 µM) | 6.25 µg/mL (≈ 16 µM) | 3.12 µg/mL (≈ 7.97 µM) | > 100 µg/mL | antibacterial activity compared with parent or reference substance [6]: higher antibacterial activity than that of the parent substance, 3',4'-dideoxyneamine, against both sensitive and resistant bacteria; antibacterial activity ([6]; various gram-positive and gram-negative bacteria, including resistant strains): exhibits a antibacterial activity against various gram-positive and gram-negative bacteria, including the kanamycin-resistant strains; toxicity (mice): lower toxicity to animals and men; MIC [2, 27]: 12.5 µg/mL (≈ 31.9 µM); MIC [20]: 12.5 µg/mL (≈ 31.9 µM); MIC [5, 27]: 3.12 µg/mL (≈ 7.97 µM); LD50 (in vivo): > 100 mg/kg; MIC [21]: 6.25 µg/mL (≈ 16 µM) |
| NCC[C@H](O)C(=O)N[C@@H]1C[C@H](N)[C@@H](O[C@H]2O[C@H](CN)CC[C@H]2N)[C@H](O[C@@H]2O[C@H](CO)[C@@H](O)[C@H]2O)[C@H]1O [AHB-dideoxyribostamycin, 1-N-[(S)-4-amino-2-hydroxybutyryl]-3',4'-dideoxyribostamycin] | < 0.39 µg/mL | 0.78 µg/mL (≈ 1.49 µM) | 25 µg/mL (≈ 47.7 µM) | 25 µg/mL (≈ 47.7 µM) | 0.39 µg/mL (≈ 0.745 µM) | 3.12 µg/mL (≈ 5.96 µM) | 6.25 µg/mL (≈ 11.9 µM) | 0.78 µg/mL (≈ 1.49 µM) | 12.5 µg/mL (≈ 23.9 µM) | < 0.39 µg/mL | 1.56 µg/mL (≈ 2.98 µM) | 12.5 µg/mL (≈ 23.9 µM) | 0.78 µg/mL (≈ 1.49 µM) | 6.25 µg/mL (≈ 11.9 µM) | 0.78 µg/mL (≈ 1.49 µM) | 1.56 µg/mL (≈ 2.98 µM) | 1.56 µg/mL (≈ 2.98 µM) | 6.25 µg/mL (≈ 11.9 µM) | < 0.39 µg/mL | > 100 µg/mL | antibacterial activity compared with parent or reference substance [6]: strongly enhanced antibacterial activity as compared with that of ribostamycin and 3',4'-dideoxyribostamycin and was comparable to that of butirosin B; effectiveness against Escherichia coli K-12 JR 66/W 677 [2, 28]: effective; MIC [22]: 1.56 µg/mL (≈ 2.98 µM); MIC [23]: 0.78 µg/mL (≈ 1.49 µM); MIC [24]: 1.56 µg/mL (≈ 2.98 µM); MIC (Escherichia coli K-12): 1.56 µg/mL (≈ 2.98 µM); MIC [20]: 3.12 µg/mL (≈ 5.96 µM); effectiveness against Klebsiella pneumoniae type 22 #3038 [20, 28]: effective; MIC [5, 27]: 1.56 µg/mL (≈ 2.98 µM); LD50 (in vivo): > 100 mg/kg; MIC [21]: < 0.39 µg/mL |
| NC[C@H]1O[C@H](O[C@H]2[C@H](O[C@@H]3O[C@H](CO)[C@@H](O)[C@H]3O)[C@@H](O)[C@H](N)C[C@@H]2N)[C@H](N)[C@@H](O)[C@@H]1O [Ribostamycin, 5-0-β-D-ribofuranosyl-neamine] | 3.12 µg/mL (≈ 6.87 µM) | 1.56 µg/mL (≈ 3.43 µM) | 100 µg/mL (≈ 220 µM) | > 100 µg/mL | 1.56 µg/mL (≈ 3.43 µM) | 6.25 µg/mL (≈ 13.8 µM) | 50 µg/mL (≈ 110 µM) | 1.56 µg/mL (≈ 3.43 µM) | 12.5 µg/mL (≈ 27.5 µM) | > 100 µg/mL | 6.25 µg/mL (≈ 13.8 µM) | > 100 µg/mL | 1.56 µg/mL (≈ 3.43 µM) | > 100 µg/mL | > 100 µg/mL | 1.56 µg/mL (≈ 3.43 µM) | > 100 µg/mL | > 100 µg/mL | 3.12 µg/mL (≈ 6.87 µM) | > 100 µg/mL | MIC [2, 27]: > 100 µg/mL; MIC [22]: 3.12 µg/mL (≈ 6.87 µM); MIC [23]: 3.12 µg/mL (≈ 6.87 µM); MIC [24]: > 100 µg/mL; MIC (Escherichia coli K-12): 3.12 µg/mL (≈ 6.87 µM); MIC [20]: > 100 µg/mL; MIC [5, 27]: 3.12 µg/mL (≈ 6.87 µM); MIC [21]: 6.25 µg/mL (≈ 13.8 µM) |
